Patent US6572839B2, “Sensitizer for tumor treatment” (Hitachi, Ltd., priority 2000, dated 2003)
Read-outs that look alike come from different tables or passages of the source.

What was measured:
[1] = Evaluation of the photosensitivity (photo-oxidation reaction of iodide); conditions: light of 365 nm, DMF solution, FIG. 9 / FIG. 10
Method: The photo-oxidation reaction of iodide as represented by Equation 4 was carried out in the presence of RB—Cn and the photosensitivity of the compound was evaluated.
A mixed solution composed of 2 mL of a 0.1 mol/L solution of potassium iodide in DMF and 1 mL of a 1 mmol/L solution of RB—Cn in DMF was placed in a glass dish (48 mm in diameter) and irradiated with light of 365 nm for a predetermined period. The absorbance, at 350 nm, of the sample was measured before and after exposure. 350 nm is the absorption maximum wavelength of I3^—. Based on the absorbance (A), the concentration of I3^— was calculated using Equation 5.
The procedure of Test Example 8 was followed in the presence of RB—COOH—Cn.

[2] = Evaluation of the acoustic cavitation promoting effect (subharmonic signal upon ultrasound irradiation); conditions: 0.5 MHz and 1 MHz; for subharmonic generation: 0.1 mmol/L in PBS (pH 7.4), acoustic intensity 5 W/cm^2, 1 minute
Method: A 0.1 mmol/L solution of RB—Cn in PBS (pH 7.4, containing 1% DMF) was sealed in a polyethylene bag (30×25 mm, 0.03 mm thick) and irradiated with ultrasonic waves of 0.5 MHz and 1 MHZ simultaneously under conditions of an acoustic intensity of 5 or 10 W/cm^2 and an exposure time of 1 minute, using an experimental apparatus having the constitution shown in FIG. 4.
In FIG. 4, 10 indicates degassed water, 11—a water tank, 12—a polyethylene bag, 13—a sample solution, 14-1 and 14-2 each—a holdfast, 15—a hanger, 16—a hydrophone, 17—a supporter, 18—an ultrasound transducer, 19—a supporter, 20—a signal processor, 21—an amplifier, 22—a spectrum analyzer, 23—an amplifier, and 24—a wave generator.
The acoustic signals at the subharmonic (250 kHz) characteristic to acoustic cavitation were measured at one-second intervals using a focusing type hydrophone, the root mean square of the signal amplitudes during the irradiation period was calculated and this was used as an indication of acoustic cavitation.
For comparison, a 0.1 mmol/L solution of RB in PBS (pH 7.4) was also measured for subharmonic signals. […] For each of RB and the RB—Cn species containing 3, 6 or 18 carbon atoms in the alkyl group (RB—C3, RB—C6 and RB—C18), the relation between acoustic intensity and subharmonic intensity is shown in FIG. 6.
Using a 0.1 mmol/L solution of RB—COOH—Cn in PBS (pH 7.4), the acoustic cavitation promoting effect was evaluated in the same manner as in Test Example 5.
Using a 0.1 mmol/L solution of xanthene dye sensitizer—COOH—Cn in PBS (pH 7.4), the acoustic cavitation promoting effect was evaluated in the same manner as in Test Example 5.

[3] = tested on: murine experimental tumor Colone 26; experiment: Evaluation of the accumulation of RB—COOH—Cn in tumor tissues (fluorescence intensity ratio); type: in vivo; conditions: tumor bearing CDF1 mice, intravenous, 10 mg/kg, until 120 minutes after administration, FIG. 3
Method: (§1) Tumor bearing mice were intravenously administered with RB or RB—Cn and, after the lapse of a predetermined period, tumor tissues were excised. The fluorescence spectrum of the agent extracted from the tumor tissues was measured and the concentration of the agent was estimated from the fluorescence intensity to thereby evaluate the accumulability in tumor tissues. Mice subjected to the test were 5-week male CDF1 mice one to two weeks after subcutaneous implantation of small pieces (e.g. 1 mm^3 pieces) of the murine experimental tumor Colone 26. The dose of the agent was 10 mg/kg and methanol or chloroform was used for the extraction.
Tumor bearing mice were intravenously administered with RB or RB—COOH—Cn and, after the lapse of a predetermined period, tumor tissues were excised. The fluorescence intensity of the tumor tissues was measured and the accumulability in tumor tissues was evaluated based on the ratio of that intensity and the fluorescence intensity of an internal standard (fluorescence intensity ratio). The mice used in the test and the dose of the agent were the same as in Test Example 3. As an example of the results, the relation between the time from agent administration to mice to tumor tissue excision and the fluorescence intensity ratio is shown in FIG. 3 for each of RB and RB—COOH—Cn species containing 2, 3, 7 or 15 carbon atoms in the alkyl group (RB—COOH—C2, RB—COOH—C3, RB—COOH—C7 and RB—COOH—C15).

[4] = tested on: murine experimental tumor Colone 26; experiment: Evaluation of the accumulation of RB—Cn in tumor tissues (agent extracted, fluorescence); type: in vivo; conditions: tumor bearing CDF1 mice, intravenous, 10 mg/kg, until 120 minutes after administration, FIG. 2
Method: as §1

[5] = Preparation of RB solution and RB lipophilic derivative solutions for administration in vivo; type: physicochemical; conditions: target 10 mg/mL (RB—Cn 1 mg/mL), final pH about 7.4
Method: A solution each of RB (Formula 9), RB—Cn—COOH (Formula 11) and RB—COOH—Cn (Formula 12) with a concentration of 10 mg/mL and a solution of RB—Cn (Formula 10) with a concentration of 1 mg/mL were prepared.
RB: 50 mg of RB was dissolved in PBS (pH 7.4) and the whole volume was made 5 mL.
RB—Cn: 4 mg of RB—Cn was dissolved in 0.4 mL of DMSO. Then, 0.4 mL of ethanol, 0.3 mL of 0.1 N NaOH aqueous solution and 1.0 mL of PBS (pH 7.4) were added and, further, 0.1 N hydrochloric acid was added to adjust the pH to about 7.4 and the whole volume was made 4 mL by further adding PBS (pH 7.4). The DMSO accounted for 10% of the whole solution.
RB—C7—COOH: 30 mg of RB—C7—COOH was dissolved in 1.2 mL of 0.1 N NaOH aqueous solution, 0.1 N hydrochloric acid was added to adjust the pH to about 7.4 and the whole volume was made 3 mL by further adding PBS (pH 7.4).
RB—COOH—Cn: n=2 to 10:30 mg of each RB—COOH—Cn was dissolved in 1.2 mL of 0.1 N NaOH aqueous solution, 0.1 N hydrochloric acid was added to adjust the pH to about 7.4 and the whole volume was made 3 mL by further adding PBS (pH 7.4). […].
n=11 to 20:30 mg of each RB—COOH—Cn was dissolved in 0.6 mL of DMF. Then, 1.2 mL of 0.1 N NaOH aqueous solution was added, 0.1 N hydrochloric acid was added to adjust the pH to about 7.4 and the whole volume was made 3 mL by further adding PBS (pH 7.4).

[6] = Solubility measurement of RB and lipophilic derivatives of RB in PBS and 1-octanol; type: physicochemical; conditions: saturated solution at 25° C.; for solubility: thermodynamic from solid
Method: The sonochemical sensitizers of the invention, namely RB—COOH—Cn species (n being the number of carbon atoms in the straight alkyl group) were examined for their solubility in an aqueous solution and in an organic solvent. The aqueous solution used was a phosphate buffer solution (hereinafter, PBS) with a pH of 7.4 and the organic solvent used was 1-octanol.
First, saturated solutions of each RB—COOH—Cn in PBS and in 1-octanol were prepared at 25° C. and each solution was measured for its ultraviolet-visible absorption spectrum. Based on the molar absorptivity determined beforehand by measuring the ultraviolet-visible absorption spectrum of a solution having a known concentration, the agent concentration in the saturated solution was estimated.
For comparison, the starting material RB and two kinds of RB derivative, for which an attempt was made to increase the lipophilicity by a method other than that of the invention, namely rose bengal alkyl esters (hereinafter, RB—Cn, n being the number of carbon atoms in the alkyl group) and rose bengal fatty acid esters (hereinafter, RB—Cn—COOH, n being the number of carbon atoms in the methylene chain), were also subjected to solubility measurement.
In the solubility measurement, the respective derivatives having an equal number of carbon atoms in the alkyl group (n=7) were used.

Molecule	relation between light exposure time and yield in photo-oxidation of iodide [1]	subharmonic generation [2]	further results
CCCCCCCCCCCCCCOC(=O)c1c(Cl)c(Cl)c(Cl)c(Cl)c1-c1c2cc(I)c(=O)c(I)c-2oc2c(I)c(O)c(I)cc12 [RB—Cl4]	almost proportional to the exposure time		
CCCCCCC(OC(=O)c1ccccc1-c1c2cc(I)c(=O)c(I)c-2oc2c(I)c(O)c(I)cc12)C(=O)O (stereo not drawn) [EB—COOH—C7, Erythrosine B-α-carboxyheptyl ester]		observed	
Rose bengal-α-carboxypentadecyl ester [RB—COOH—C15]	almost proportional to the exposure time	observed	occurrence/concentration in tumor tissues (fluorescence intensity ratio to internal standard) [3]: higher than that of RB
CCCCCCOC(=O)c1c(Cl)c(Cl)c(Cl)c(Cl)c1-c1c2cc(I)c(=O)c(I)c-2oc2c(I)c(O)c(I)cc12 [RB—C6]	almost proportional to the exposure time	observed	agent concentration in tumor tissues [4]: higher as compared with RB
erythrosine B sodium salt [EB]		observed	
O=C([O-])c1c(Cl)c(Cl)c(Cl)c(Cl)c1-c1c2cc(Br)c(=O)c(Br)c-2oc2c(Br)c([O-])c(Br)cc12.[Na+].[Na+] [PB, phloxine B sodium salt]		observed	
Rose bengal-α-carboxyethyl ester [RB—COOH—C2]	almost proportional to the exposure time		occurrence/concentration in tumor tissues (fluorescence intensity ratio to internal standard) [3]: hardly observed
CCCCCCCCCCCCCCCCCCOC(=O)c1c(Cl)c(Cl)c(Cl)c(Cl)c1-c1c2cc(I)c(=O)c(I)c-2oc2c(I)c(O)c(I)cc12 [RB—C18]	almost proportional to the exposure time		subharmonic formation ([2]; 0.1 mmol/L in PBS (pH 7.4, 1% DMF), ultrasound intensity 10 W/cm^2, 1 minute): no subharmonic formation was observed; agent concentration in tumor tissues [4]: higher as compared with RB
O=C([O-])c1c(Cl)c(Cl)c(Cl)c(Cl)c1-c1c2cc(I)c(=O)c(I)c-2oc2c(I)c([O-])c(I)cc12.[Na+].[Na+] [RB, rose bengal sodium salt]	almost proportional to the exposure time	observed	occurrence/concentration in tumor tissues (fluorescence intensity ratio to internal standard) [3]: hardly observed; agent concentration in tumor tissues [4]: hardly observed; dissolution behaviour when preparing solution for administration in vivo [5]: soluble as it was in PBS (pH 7.4); solubility ([6]; 1-octanol, organic solvent or mixture, organic solvent, read-out: solubility in 1-octanol): < 0.1 mM; solubility ([6]; phosphate buffer solution (PBS), pH 7.4, aqueous buffer, aqueous solution, read-out: solubility in PBS (pH 7.4)): 220 mM; solubility in 1-octanol ([6]; organic solvent, sodium salt): <0.1 mM
CCCCCCCCCCOC(=O)c1c(Cl)c(Cl)c(Cl)c(Cl)c1-c1c2cc(I)c(=O)c(I)c-2oc2c(I)c(O)c(I)cc12 [RB—CLO]	almost proportional to the exposure time		
O=C(O)CCCCCCCOC(=O)c1c(Cl)c(Cl)c(Cl)c(Cl)c1-c1c2cc(Br)c(=O)c(Br)c-2oc2c(Br)c(O)c(Br)cc12 [PB—COOH—C7, Phloxine B-α-carboxyheptyl ester]		observed	
